# Source: US11497212B2, “Substituted thiophenyl uracils, salts thereof and the use thereof as herbicidal agents” (Syngenta Crop Protection AG, priority 2017, dated 2022)
# Experiments:
# Format in all cases: in vivo
# [1] = system: Abutilon theophrasti; assay: Herbicidal action post-emergence (greenhouse pot trial); settings: application rate 80 g/ha, scored visually after about 3 weeks vs untreated controls
# Outline: (§1)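 Visual efficacy score after ~3 wk in greenhouse vs untreated control; 100% = plants dead, 0% = like control. Spray: aqueous suspension/emulsion of WP or EC, 0.5% additive, 600 L/ha water, ≤80 g/ha. Plants in sandy loam pots, treated at one-leaf stage, 2–3 wk post-sowing.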
# [2] = system: Amaranthus retroflexus; assay: as above; settings: application rate 80 g/ha, scored visually after about 3 weeks vs untreated controls
# Outline: as §1
# [3] = system: Echinochloa crus-galli; assay: as above; settings: application rate 80 g/ha, scored visually after about 3 weeks vs untreated controls
# Outline: as §1
# [4] = system: Matricaria inodora; assay: as above; settings: application rate 80 g/ha, scored visually after about 3 weeks vs untreated controls
# Outline: as §1
# [5] = system: Pharbitis purpurea; assay: as above; settings: application rate 80 g/ha
# Outline: as §1
# [6] = system: Polygonum convolvulus; assay: as above; settings: application rate 80 g/ha, scored visually after about 3 weeks vs untreated controls
# Outline: as §1
# [7] = system: Setaria viridis; assay: as above; settings: application rate 80 g/ha, scored visually after about 3 weeks vs untreated controls
# Outline: as §1
# [8] = system: Stellaria media; assay: as above; settings: application rate 80 g/ha, scored visually after about 3 weeks vs untreated controls
# Outline: as §1
# [9] = system: Veronica persica; assay: as above; settings: application rate 80 g/ha
# Outline: as §1
# [10] = system: Viola tricolor; assay: as above; settings: application rate 80 g/ha
# Outline: as §1
# [11] = system: Glycine max; assay: Crop compatibility post-emergence (greenhouse pot trial); settings: application rate 5 g/ha
# Outline: (§2)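 Crop seeds sown in sandy loam and grown in the greenhouse 2 to 3 weeks were treated at the one-leaf stage. WP or EC formulations were sprayed as aqueous suspension/emulsion with 0.5% additive at 600 L/ha. Damage was scored visually about 3 weeks later versus untreated controls (0% = like control, 100% = dead).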
# [12] = system: Oryza sativa; assay: as above
# Outline: as §2
# [13] = system: Zea mays; assay: as above; settings: application rate 5 g/ha
# Outline: as §2
# [14] = system: Abutilon theophrasti; assay: Herbicidal action pre-emergence (greenhouse pot trial); settings: application rate 320 g/ha, scored after about 3 weeks
# Outline: (§3)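 Efficacy scored visually as percent of untreated control (0% = like control, 100% = dead) roughly 3 weeks after treatment. Compounds, as WP or EC plus 0.5% additive in 600 L/ha water, were applied at up to 320 g/ha to soil surface covering freshly sown seeds.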
# [15] = system: Amaranthus retroflexus; assay: as above; settings: application rate 320 g/ha, scored after about 3 weeks
# Outline: as §3
# [16] = system: Avena fatua; assay: as above; settings: application rate 320 g/ha
# Outline: as §3
# [17] = system: Cyperus esculentus; assay: as above; settings: application rate 320 g/ha
# Outline: as §3
# [18] = system: Echinochloa crus-galli; assay: as above; settings: application rate 320 g/ha, scored after about 3 weeks
# Outline: as §3
# [19] = system: Hordeum murinum; assay: as above; settings: application rate 320 g/ha
# Outline: as §3
# [20] = system: Lolium rigidum; assay: as above; settings: application rate 320 g/ha
# Outline: as §3
# [21] = system: Matricaria inodora; assay: as above; settings: application rate 320 g/ha, scored after about 3 weeks
# Outline: as §3
# [22] = system: Pharbitis purpurea; assay: as above; settings: application rate 320 g/ha
# Outline: as §3
# [23] = system: Setaria viridis; assay: as above; settings: application rate 320 g/ha, scored after about 3 weeks
# Outline: as §3
# [24] = system: Stellaria media; assay: as above; settings: application rate 320 g/ha, scored after about 3 weeks
# Outline: as §3
# [25] = system: Veronica persica; assay: as above; settings: application rate 320 g/ha
# Outline: as §3
# [26] = system: Viola tricolor; assay: as above; settings: application rate 320 g/ha, scored after about 3 weeks
# Outline: as §3
# [27] = system: Alopecurus myosuroides; assay: Herbicidal action post-emergence (greenhouse pot trial); settings: application rate 80 g/ha, scored visually after about 3 weeks vs untreated controls
# Outline: as §1
# [28] = system: Digitaria sanguinalis; assay: as above; settings: application rate 80 g/ha
# Outline: as §1
# [29] = system: Hordeum murinum; assay: as above; settings: application rate 80 g/ha, scored visually after about 3 weeks vs untreated controls
# Outline: as §1
# [30] = system: Lolium rigidum; assay: as above; settings: application rate 80 g/ha, scored visually after about 3 weeks vs untreated controls
# Outline: as §1
# [31] = system: Triticum aestivum; assay: Crop compatibility post-emergence (greenhouse pot trial); settings: application rate 80 g/ha
# Outline: as §2
# [32] = system: Digitaria sanguinalis; assay: Herbicidal action pre-emergence (greenhouse pot trial); settings: application rate 80 g/ha
# Outline: as §3
# [33] = system: Glycine max; assay: Crop compatibility pre-emergence (greenhouse pot trial); settings: application rate 80 g/ha, effect vs untreated controls
# Outline: (§4)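 Greenhouse pot test in which WP or EC formulations are applied to the covering soil before emergence (600 L/ha water, 0.5% additive). Crop effects are scored by eye as % after about 3 weeks, relative to untreated plants.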
# [34] = system: Zea mays; assay: as above; settings: application rate 80 g/ha, effect vs untreated controls
# Outline: as §4
Structure (SMILES),Abutilon theophrasti (Efficacy in %) [1] [%],Amaranthus retroflexus (Efficacy in %) [2] [%],Echinochloa crus-galli (Efficacy in %) [3] [%],Matricaria inodora (Efficacy in %) [4] [%],Pharbitis purpurea (Efficacy in %) [5] [%],Polygonum convolvulus (Efficacy in %) [6] [%],Setaria viridis (Efficacy in %) [7] [%],Stellaria media (Efficacy in %) [8] [%],Veronica persica (Efficacy in %) [9] [%],Viola tricolor (Efficacy in %) [10] [%],Abutilon theophrasti (Efficacy in %) [14] [%],Amaranthus retroflexus (Efficacy in %) [15] [%],Avena fatua (Efficacy in %) [16] [%],Echinochloa crus-galli (Efficacy in %) [18] [%],Hordeum murinum (Efficacy in %) [19] [%],Lolium rigidum (Efficacy in %) [20] [%],Matricaria inodora (Efficacy in %) [21] [%],Pharbitis purpurea (Efficacy in %) [22] [%],Setaria viridis (Efficacy in %) [23] [%],Stellaria media (Efficacy in %) [24] [%],further results
COCCOC(=O)CSc1cc(-n2c(=O)cc(C(F)(F)F)n(C)c2=O)c(F)cc1Cl [I.8-1],100,100,100,100,100,100,100,100,100,100,100,100,80,100,90,90,100,100,100,100,Glycine max (Efficacy in %) [11]: 20%; Oryza sativa (Efficacy in %) ([12]; application rate 5 g/ha): 10%; Zea mays (Efficacy in %) [13]: 20%; Cyperus esculentus (Efficacy in %) [17]: 90%; Veronica persica (Efficacy in %) [25]: 100%; Viola tricolor (Efficacy in %) [26]: 100%
CC1CC(COC(=O)C(C)Sc2cc(-n3c(=O)cc(C(F)(F)F)n(C)c3=O)c(F)cc2Cl)CO1 (stereo not drawn) [I.1-73],100,100,100,100,100,100,100,100,100,100,100,100,90,100,90,100,100,100,100,100,Alopecurus myosuroides (Efficacy in %) [27]: 90%; Digitaria sanguinalis (Efficacy in %) [28]: 100%; Hordeum murinum (Efficacy in %) [29]: 80%; Lolium rigidum (Efficacy in %) [30]: 90%; Oryza sativa (Efficacy in %) ([12]; application rate 20 g/ha): 5%; Triticum aestivum (Efficacy in %) [31]: 20%; Digitaria sanguinalis (Efficacy in %) [32]: 100%; Veronica persica (Efficacy in %) [25]: 100%; Viola tricolor (Efficacy in %) [26]: 100%; Glycine max (Efficacy in %) [33]: 0%; Zea mays (Efficacy in %) [34]: 0%
